Source: patent US7442513B2, “Method of screening for agents that modulate a homer signaling pathway” (The Johns Hopkins University, priority 2003, dated 2008)

Experiments:
[1] = test system: mGluR5 binding to Homer; experiment: mGluR5 binding to GST-Homer after treating mGluR5-expressing HEK293 cells with PPIase inhibitors (pull-down, western blot); format: cell-based; details: for effect on mGluR5 binding to GST-Homer: HEK293 cells expressing mGluR5, 1 micromolar in medium, differing intervals
Protocol: HEK293 cells were transfected with pRK5-mGluR5. 1 micromolar FK506 was added to the medium for differing intervals prior to harvesting and preparation of lysates in the indicated buffer, which include inhibitors of phosphatases and proteases. Lysates were mixed with glutathione agarose beads loaded with GST-Homer 3 EVH1 domain for 1 hr at 4 C. mGluR5 that bound to Homer was then analyzed by western blot. Lysates were also assayed to confirm expression of mGluR5 (lower panel). Note the increase in mGluR5 that binds to Homer from lysates of cells treated for 3 hrs or longer with FK506.
If PPIases regulate the conformational state of the mGluR5, it was anticipated that PPIase inhibitors would alter the ability of the mGluR5 to bind to Homer. To examine this hypothesis, Homer was expressed as a bacterial fusion protein with glutathione S-transferase (GST) and loaded the protein on a glutathione agarose bead. These binding assays are identical to those used previously to document the ligand consensus sequence in mGluR5 (Tu et al., 1998), and for analysis of the binding surfaces of Homer (Beneken et al., 2000).
Cells were treated for different times with PPIase inhibitors and then harvested in buffer containing protease and phosphatase inhibitors and 1% Triton detergent. Soluble lysates were then mixed with beads loaded with GST-Homer incubated for 1 hr at 4° C., washed several times and proteins eluted with SDS loading buffer. […] Increased binding was detected by 3 hrs and remained elevated for 24 hrs.

[2] = test system: TrpC1 binding to Homer; experiment: TrpC1 binding to GSTHomer after treating lysates of TrpC1-expressing HEK293 cells; details: for effect on TrpC1 binding to Homer: lysates treated with indicated concentrations
Protocol: TrpC1 was transiently expressed in HEK293 cells and lysates were treated with the indicated concentrations of FK506, GPI1046, cyclosporin A or aniracetam (negative control) and assayed for TrpC1 binding to GSTHomer. TrpC1 migrates as both a monomer and dimer. Note that FK506, GPI1046 and cyclosporin A (but not aniracetam) treatment results in increased TrpC1 binding to Homer.

[3] = biological target: T1, TrpC1 binding to GST-FKBP52 (Homo sapiens, UniProt Q02790); experiment: TrpC1 binding to GST-FKBP52 after pretreating cell lysates with PPIase inhibitors
T1 construct: expressed in transfected cells; host or cells: HEK293 cell lysate (TrpC1)
T1 sequence (Q02790 1-459): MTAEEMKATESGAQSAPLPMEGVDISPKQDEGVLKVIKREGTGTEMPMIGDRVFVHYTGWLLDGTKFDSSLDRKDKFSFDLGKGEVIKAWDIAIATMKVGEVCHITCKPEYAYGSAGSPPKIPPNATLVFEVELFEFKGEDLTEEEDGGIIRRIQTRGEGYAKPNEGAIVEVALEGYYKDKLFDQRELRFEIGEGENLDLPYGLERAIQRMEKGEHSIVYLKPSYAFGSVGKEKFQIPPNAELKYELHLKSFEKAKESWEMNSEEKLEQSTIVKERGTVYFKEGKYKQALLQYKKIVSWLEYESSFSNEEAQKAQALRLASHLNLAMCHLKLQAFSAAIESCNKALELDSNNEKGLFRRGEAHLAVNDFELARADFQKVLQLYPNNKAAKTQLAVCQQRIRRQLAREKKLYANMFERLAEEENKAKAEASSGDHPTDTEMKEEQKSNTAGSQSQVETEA
Source text: To further test this hypothesis, the binding of TrpC1 to GST-FKBP12 or GST-FKBP52 was examined. Also, the effect of pretreating cell lysates with FK506, GPI-1046, cyclosporin A or the control agent aniracetam (structurally similar to GPI-1946) was examined. The notion being that dissociation of endogenous FKBP would increase the availability of TrpC1 to bind GST-FKBP in vitro. The FK506 might also be expected to bind to GST-FKBP but because this protein is highly concentrated on the bead and is in vast excess to cellular FKBP, the net consequence of drug treatment would be increased binding of TrpC1 to GST-FKBP. In these assays, TrpC1 bound to FKBP52 (FIG. 15), but not to FKBP12. Binding of TrpC1 to GST-FKBP52 was increased by treatment with both FK506 and GPI1046. The effect of these agents was particularly robust for the dimeric TrpC1 species and was detected with 100 nM FK506 or GPI1046. These studies confirmed that TrpC1 is bound by Homer and FKBP52, and that treatment of cell lysates or cells with drugs that inhibit rotamase activity and dissociate rotamases from their target proteins, result in enhanced binding of TrpC1 to both Homer (FIG. 14) and FKBP52 (FIG. 15).

[4] = test system: TrpC1 binding to Homer1EVH1; experiment: TrpC1 binding to GST-Homer1 EVH1 after treating TrpC1-expressing HEK293 cells with FK506; format: cell-based; details: 150 nM
Protocol: HEK293 cells that transiently express TrpC1 were treated with FK506 for indicted time prior to preparation of lysates and binding to GST-Homer. Note that FK506 treatment increases TrpC1 binding to Homer.
An observation from the Homer-TrpC1 binding data remained enigmatic. […] Additionally, certain point mutants of the C-terminal Homer ligand increase binding to Homer. […] The possibility that an FKBP homologue might bind mammalian TrpC1 and impact the binding of Homer was explored. As a first test of this hypothesis, the consequence of treating cells expressing TrpC1 with FK506, and then testing TrpC1 binding to GST-Homer was examined. HEK293 cells were transfected with wt TrpC1 and treated with 150 nM FK506 for times ranging from 15 min to 24 hrs. Cells lysates were prepared in 1% Triton and mixed with GST-Homer1 EVH1 and bound TrpC1 assayed by western blot. Lysates were also assayed to compare expression in each of the samples. […] This effect was detected as early as 30 min after addition of FK506 and persisted for 24 hrs. A peak of increased binding appeared at ˜6hrs. […] It was concluded that FK506 increases the binding of TrpC1 to Homer at a dose that is known to the relevant for FKBP.

[5] = 1 micromolar, HEK293 cells expressing mGluR5

CCC(C)(C)C(=O)C(=O)N1CCC[C@H]1C(=O)OCCCc1cccnc1 [GPI1046]
mGluR5 binding after 12 or 24 hrs of treatment ([1]; 1 micromolar, 12 or 24 hrs): decreased
effect on expression of mGluR5 in lysates ([1]; 1 micromolar, HEK293 cells): did not significantly alter
treatment time of peak mGluR5 binding [1, 5]: ≤ 3 h
treatment time within which mGluR5 binding increased [1, 5]: ≤ 30 min
effect on mGluR5 binding to GST-Homer [1]: time-dependent increase
effect on mGluR5 binding to GST-Homer ([1]; listed as GPI 1046): effective in increasing
effect on TrpC1 binding to Homer at 10 nM ([2]; 10 nM): potent enhancement
effect on TrpC1 binding to Homer with higher doses or longer times ([2]; doses higher than 10 nM or longer times): decreases
effect on TrpC1 binding to Homer [2]: increased
effect on TrpC1 binding to Homer ([2]; listed as GPI 1046): enhanced
concentration at which increased TrpC1 binding to GST-FKBP52 was detected ([3]; dimeric TrpC1 species, pretreated lysates): 100 nM
effect on binding of TrpC1 to GST-FKBP52 ([3]; pretreated cell lysates): increased

COc1ccc(C(=O)N2CCCC2=O)cc1 [aniracetam]
effect on TrpC1 binding to Homer [2]: not

C=CC[C@@H]1/C=C(\C)C[C@H](C)C[C@H](OC)[C@H]2O[C@@](O)(C(=O)C(=O)N3CCCC[C@H]3C(=O)O[C@H](/C(C)=C/[C@@H]3CC[C@@H](O)[C@H](OC)C3)[C@H](C)[C@@H](O)CC1=O)[C@H](C)C[C@@H]2OC [FK506]
earliest time at which increased TrpC1 binding was detected [4]: 30 min
time for which increased TrpC1 binding persisted [4]: 24 h
time of peak of increased TrpC1 binding [4]: ~6 h
time for which mGluR5 binding remained elevated [1, 5]: 24 h
